pIC50: −log10 of the molar value.
What was measured:
[1] = tested on: DNA; assay: A to G editing on DNA by ecTadA mutant-nCas9 constructs (mammalian construct); assay type: cell-based
[2] = tested on: DNA; details: SpCas9 mutation relative to SEQ ID NO: 74; UniProtKB-Q99ZW2 entry; cited from earlier work
[3] = tested on: STAT3; assay: STAT3 reporter system (STAT3 signal); assay type: cell-based
[4] = tested on: STAT3; assay: STAT3 reporter signal after STAT3 inhibitor or base editor treatment (FIGS. 3, 4, 5); assay type: cell-based
[5] = biological target: STAT3 SH2 domain (Homo sapiens, UniProt P40763); details: 37° C.; cited from earlier work
[6] = tested on: STAT3-dependent breast cancer cells; details: 10 μM; cited from earlier work

Sequence of STAT3 SH2 domain (P40763 whole entry, the tested form may be a part): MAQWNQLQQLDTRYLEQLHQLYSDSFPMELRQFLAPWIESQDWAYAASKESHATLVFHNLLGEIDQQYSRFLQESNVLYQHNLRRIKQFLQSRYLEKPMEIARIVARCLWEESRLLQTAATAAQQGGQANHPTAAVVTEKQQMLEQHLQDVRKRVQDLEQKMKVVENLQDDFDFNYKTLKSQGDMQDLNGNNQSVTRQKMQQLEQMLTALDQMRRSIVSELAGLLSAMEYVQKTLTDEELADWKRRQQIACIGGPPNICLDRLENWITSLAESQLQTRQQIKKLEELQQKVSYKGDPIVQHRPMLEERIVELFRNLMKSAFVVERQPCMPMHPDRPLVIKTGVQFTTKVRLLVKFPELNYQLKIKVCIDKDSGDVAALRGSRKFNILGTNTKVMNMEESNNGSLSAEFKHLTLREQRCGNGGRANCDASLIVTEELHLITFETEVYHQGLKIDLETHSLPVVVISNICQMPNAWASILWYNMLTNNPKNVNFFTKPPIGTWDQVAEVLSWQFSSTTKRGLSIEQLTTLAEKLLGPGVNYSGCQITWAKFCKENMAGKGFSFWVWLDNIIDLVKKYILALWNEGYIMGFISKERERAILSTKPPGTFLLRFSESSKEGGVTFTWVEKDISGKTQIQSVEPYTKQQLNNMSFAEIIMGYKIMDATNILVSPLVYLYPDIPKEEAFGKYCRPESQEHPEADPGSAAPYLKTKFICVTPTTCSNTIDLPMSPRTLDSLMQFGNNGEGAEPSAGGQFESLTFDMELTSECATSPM

For “ecTadA(D108V)-XTEN-nCas9-NLS: ABE fusion protein, SEQ ID NO: 156”, the “activity on DNA, A to G editing” value [1] was “ecTadA(D108V)-XTEN-nCas9-NLS: (mammalian construct, active on DNA, A to G”.

For “H840A: SpCas9 mutation relative to canonical SpCas9, SEQ ID NO: 74”, the “Function/Characteristic (as reported)” value [2] is given as “Nickase mutant which cleaves the non-”.

For “1099-1368 deletion: SpCas9 mutation relative to canonical SpCas9, SEQ ID NO: 74”, the “Function/Characteristic (as reported)” value [2] is given as “No nuclease activity”.

In the case of “ecTadA(D108N)-XTEN-nCas9-NLS: ABE fusion protein, SEQ ID NO: 154”, the “activity on DNA, A to G editing” value [1] was “ecTadA(D108N)-XTEN-nCas9-NLS: (mammalian construct, active on DNA, A to G”.

In the case of “ecTadA(D108G)-XTEN-nCas9-NLS: ABE fusion protein, SEQ ID NO: 155”, the “activity on DNA, A to G editing” value [1] was “ecTadA(D108G)-XTEN-nCas9-NLS: (mammalian construct, active on DNA, A to G”.

With `O=[N+]([O-])c1ccc2c(c1)S(=O)(=O)C=C2` [Stattic, stattic] the “inhibition of STAT3” value ([3]; STAT3 inhibitor at different concentrations, FIG. 3) was “inhibition of STAT3”, the “STAT3 signal over time” value ([3]; extension of the graph of FIG. 3, FIG. 5) was “does not lead to a durable effect” and the “STAT3 signal over time” value [4] was “produces an effect that does not last over time”. For the same compound, the STAT3-driven signals ([4]; different concentrations) was “reduce STAT3-driven signals”, the pIC50 [5] was 5.29 and the apoptosis [6] was “induce apoptosis”.

Source: patent US20230127008A1, “STAT3-TARGETED BASE EDITOR THERAPEUTICS FOR THE TREATMENT OF MELANOMA AND OTHER CANCERS” (The Broad Institute, Inc., priority 2020, published 2023)
